Test [1] relates to oligodendrocyte progenitor cells (OPCs). In words: OPC maturation and process outgrowth on CSPGs (MBP footprint). In kind it is cell-based, mouse. As for the experimental part:
OPCs were prepared from newborn C57BL/6 mice as described previously (Luo, F., et al. The Activators of Cyclin-Dependent Kinase 5 p35 and p39 Are Essential for Oligodendrocyte Maturation, Process Formation, and Myelination. J. Neurosci. 36, 3024-3037 (2016).). Cell culture plates were pre-coated with IgM (10 jpg/ml, Millipore) in 50 mM Tris-HCl and followed primary mouse antibody A2B5. Dissociated cells were incubated in the pre-coated culture dishes for 30 min at 37° C. and then non-adherent cells were gently removed. A2B5+ OPCs were released by 0.05% trypsin in DMEM at a purify of ˜96%. Purified OPC cells were expanded in DMEM/F12 medium supplemented with N2, 20 ng/ml PDGF, 20 ng/mlFGF, 5 ng/mlNT-3, 10 ng/ml CNTF, Glutamine (200 mM).
For MMP-2/04 staining, OPCs were plated onto 24-well coverslips that were precoated with PLL, 1 μg/mL laminin, and 2 μg/mL aggrecan and incubated with vehicle or 2.5 μM ISP for 2 days at 37° C. Cultured OPC or OL cells were fixed in 4% PFA and followed blocking in PBST solution (10% normal goat serum and 0.2% Triton-X100 in PBS). Diluted primary antibodies were incubated with samples overnight at 4° C. and followed by appropriate secondary antibody goat anti-mouse or anti-rabbit IgM or IgG conjugated with Alexa Fluor 488 or 594 (1:500, Invitrogen). […]

The test system of test [2] is LPC-demyelinated mice. The test is described as follows: Lysolecithin (LPC)-induced focal demyelination of the spinal cord in mice. In kind it is in vivo, mouse. As for the experimental part: 12-week-old C57BL/6 male mice were anaesthetized using isoflurane and a laminectomy was performed. […] of 1% LPC was infused into the dorsal column between T11 and T12 spinal cord at a rate of 0.25 μl/min. The needle was removed after a delay of 5 min to minimize back flow and the lesion closed. […] The mice were euthanized at day 7, 14 and 21 after the laminectomy separately. Spinal cords were dissected for further western blot, histology and ultrastructural analysis. Control animals received an equivalent injection of saline, and tissues were collected according to the same paradigm. […] Lesion sizes were determined by staining of serial sections with eriochrome cyanine staining.
For spinal cord sections, 20 μm coronal sections were incubated in LFB solution in 56° C. overnight and then rinsed sequentially with 95% alcohol and distilled water. The sections were then in 0.1% lithium carbonate solution and followed dehydration with a series of gradated ethanol, cleared with Histoclear and mounted. A set of serial matched sections were imaged and analyzed. Images (5 to 6 sections/animal) were captured under light microscope. The demyelinated areas (lack of LFB staining) were quantified using ImageJ software. For EAE sections, demyelinated areas were measured and represented as a percentage of total area of spinal cord. For sections of LPC model, lesion volumes were calculated by the lesion area from serial sections throughout the entire lesion based on the equation for volume of cylinder (V=lesion area×length of lesion).
Mice were anesthetized with avertin and perfusion with PBS and 4% paraformaldehyde (PFA). Brain or spinal cord were dissected and post-fixed in 4% PFA overnight at 4° C. and equilibrated in 20% sucrose. 20 μm-thick sections were pretreated with Reveal Decloaker Solution (RV 1000M, Biocare Medical) for antigen retrieval according to the manufacturer's instructions. […] For each staining, at least 3 individual animals/group were examined and images were captured with a Leica DFC500 fluorescence microscope. Staining was quantified using Image J software (US National Instisutes of Health, USA). Fluorescence intensity was calculated as percentages of the mean value of the naïve controls.
For ultrastructural analyses of myelination, anesthetized animals were perfused with 2% glutaraldehyde/4% paraformaldehyde in 0.1 M sodium carcodylate buffer, PH7.4 (Electron Microscopy Sciences). Lesioned areas of the LPC or EAE-induced spinal cords from ISP-treated or control animals were dissected and post-fixed in 1% OsO4 for 2 hrs. Coronal sections ([…]) of spinal cord or brain containing corpus callosum were prepared (Leica, Vibratome), dehydrated, stained with saturated uranyl acetate and embedded in a Poly/Bed812 resin (Polysciences Inc.). The 1 μm-thick sections were cut and stained with toluidine blue, and matched areas were selected for EM analysis. For ultrastructure analysis, ultrathin sections (0.1 μm) were cut and visualized using an electron microscope (JEOL100CX) at 80 kV. G-ratios were calculated from at least 50-100 randomly selected myelinated axons by measuring the myelin thickness of the inner and outer diameter of the myelin sheath.

The test system of test [3] is OPC secreted proteases. In words: Protease array screen of OPC conditioned media. The format is cell-based, mouse. As to conditions: OPC CM, 2.5 μM ISP for 4 div vs vehicle. As for the experimental part: OPCs were cultured on 6-well plates for 4 div with vehicle control or 2.5 μM ISP treatment. Conditioned media was collected from each group and cell-strained before incubation with blot array provided in R & D Systems Protease Array Kit (ARY025). Instructions from kit were followed with overnight incubation of collected media at 4° C. Control and ISP blots were developed together with the same exposure time and pixel intensities of array was assess using ImageJ (NIH).

The test system of test [4] is OPC conditioned media protease activity. The test is described as follows: Conditioned media protease activity assay (EnzChek, quenched casein). The format is cell-based, mouse. The settings on record: OPCs treated with 2.5 μM ISP, vs vehicle and SISP. As to the method: Around 1×10^6 OPCs were plated per well on PLL, 1 μg/mL laminin, and 2 μg/mL aggrecan coated 6-well plates and treated with vehicle, 2.5 μM ISP or SISP for 2 days at 37° C. CM was collected, cell-strained, and placed on ice until assayed. ThermoFisher Protease Assay Kit (E66383, EnzChek, ThermoFisher) was used to assay protease activity. 1× of the EnzChek mixture was mixed 1:1 with the CM from each group and incubated at RT O/N with gentle shaking. 3 replicates were performed for each sample. Samples were analyzed using a spectrophotometer at 502/528 nm excitation and emission to assess cleaved and fluorescing casein. Fluorescence units reported have been blanked with EnzChek and cell culture media mixture.

Setting [5] is: 14 dpl, given together with ISP, vs LPC+ISP.
Setting [6] is: 7 dpl, lesion epicenter, ISP started immediately.

Take `CCCCCCCC/C=C\CCCCCCCC(=O)NO` [OA-Hy, reference compound]: the MBP footprint entry in test [1] (100 nM OA-Hy, OPCs on aggrecan/laminin, vs ISP treatment alone) is on record as “decreased MBP footprint significantly”. Further, in test [2] (setting [5]), the CS56 immunoreactivity result is “concomitant increase in CS56 immunoreactivity” and the “Olig2+ OPCs in the lesion epicenter” value is “decreased accumulation”. In test [2] (18 dpl, MMP-2 inhibition without ISP, vs vehicle control), the “lesion volume, eriochrome cyanine myelin staining” value is recorded as “increased the lesion volume”. Further, the “effect on ISP-enhanced remyelination (lesion volume)” value in test [2] (18 dpl, given together with ISP) was “attenuated the enhanced remyelinating effects of ISP”.

Take “GRKKRRQRRRCDMAEHMERLKANDSLKLSQEYESI [ISP]”: the “process outgrowth and maturation of OPCs grown on CSPGs (MBP+ footprints)” value in test [1] (ISP vs vehicle on CSPGs) is given as “largely rescued”. Also, in test [3], the “protease array signal for ADAMTS, Kallikreins, Cathepsins, MMPs” value is “increased signal”; the “protease array signal for Cathepsins L and V and MMP-10 (laminin degrading)” value is on record as “reduced”. In addition, in test [2] (7 dpl vs vehicle), the “Olig2+/Ki67+ cells” value was “no differences” and the “percentage of Olig2+ OPCs in lesions” value was “significantly increased”. In addition, the “lesion volume (LFB)” value in test [2] (7 dpl, ISP 20 μg/day subcutaneous from 1 day post LPC, vehicle 1.508±0.069) was determined as 1.535±0.058 mm^3. Besides, the “CSPG expression (CS56, Cat301)” value in test [2] (7 dpl, ISP started immediately upon LPC injection, 7 days) is listed as “significantly reduced”. In addition, in test [2] (setting [6]), the “MBP myelin protein expression vs control” value was “no change”, the “activated microglia (Iba1) vs control” value is “no change” and the “reactive astrocytes (GFAP) vs control” value was “no change”. Also, the “MBP expression, western blot” value in test [2] (14 dpl) was “increased expression of MBP”. For the same compound, in test [2] (14 dpl vs controls), the “CSPGs (CS56 and Cat301) immunostaining” value is given as “quicker reduction of CSPGs”. Moreover, the “lesion volume (LFB)” value in test [2] (14 dpl, vehicle 1.035±0.06) is 0.613±0.043 mm^3. Further, the “lesion volume (LFB)” value in test [2] (21 dpl, vehicle 0.738±0.027) is listed as 0.2±0.041 mm^3. In addition, the “percentage of CC1+ oligodendrocytes in lesions” value in test [2] (LPC-injected animals, 14 dpl) is “significantly enhanced”. In test [2] (spinal cord, vs LPC vehicle), the “MMP-2 expression in the LPC-injected site (immunohistochemistry, western blot)” value is on record as “markedly enhanced”. For the same compound, the “protease activity (fluorescence A.U.)” value in test [4] is on record as “increased protease activity”.
